# Source: US6211196A, “Benzyloxy-substituted, fused N-heterocycles, processes for their preparation, and their use as bradykinin receptor antagonists” (Aventis Pharma Deutschland GmbH, priority 1997, dated 2001)
# Assays:
# [1] = biological target: T1, bradykinin β2 receptor (Cavia porcellus, UniProt O70526); assay: Ki on membrane preparations of guinea-pig ileum, 3H-bradykinin competition; assay type: binding; settings: 3H-bradykinin 0.25 to 0.3 nmol/l, guinea-pig ileum membranes, room temperature, 60 minutes, pH 6.8
# T1 construct: membrane preparations of the guinea-pig ileum; from tissue; host or cells: guinea-pig ileum membranes
# T1 sequence (O70526 1-372): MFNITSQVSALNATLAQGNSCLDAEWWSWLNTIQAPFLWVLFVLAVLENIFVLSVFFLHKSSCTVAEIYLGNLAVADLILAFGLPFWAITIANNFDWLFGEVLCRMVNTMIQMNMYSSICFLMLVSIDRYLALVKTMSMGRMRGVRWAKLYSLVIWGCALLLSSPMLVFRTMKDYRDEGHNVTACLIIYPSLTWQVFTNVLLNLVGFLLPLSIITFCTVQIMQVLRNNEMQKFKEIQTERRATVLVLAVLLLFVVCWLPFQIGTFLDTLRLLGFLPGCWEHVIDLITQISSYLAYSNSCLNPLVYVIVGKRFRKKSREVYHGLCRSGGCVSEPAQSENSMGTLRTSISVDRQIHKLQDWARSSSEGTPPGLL
# Procedure: B. Innis et al., Proc. Natl. Acad. Sci. USA, 17 (1981) 2630) according to the following procedure: […] Ligand: ^3 H-BRADYKININ (from NEN Du Pont) Both buffers are adjusted to pH 6.8 using 5 molar NaOH. Guinea-pig ilea are grossly freed from intestinal contents by careful brushing and cleaned in 0.9% strength NaCl solution. The pieces of ilea about 2 cm long are transferred to ice-cold TES buffer (about 1 g/10 ml) and homogenized in an ice bath for about 30 sec. using an Ultraturrax. The homogenate is then filtered through three layers of gauze, and the filtrate is centrifuged at 50,000 g/10 minutes. The supernatant is discarded, and the pellet is rehomogenized in the same volume of TES buffer and centrifuged again at 50,000 g/10 minutes. The pellet is rehomogenized in incubation buffer (about 1 g/5 ml) and frozen at -70° C. in cryotubes in 2 ml portions. The protein concentration of the finished membrane suspension is determined according to LOWRY and should be about 15 μg/100 μl. All incubations are carried out at room temperature for 60 minutes on microtiter plates (96×300 μl) in a 200 μl volume. All mixtures are in incubation buffer. To this end, 50 μl of the radioligand, 50 μl of the preparation to be tested, and 100 μl of the membrane suspension are pipetted into the hollows of the microtiter plate in succession. Nonspecific binding: for each concentration of the radioactive ligand, the nonspecific binding must be determined. […] In this test, HOE 140 (10 μmol/l) is used. […] The reaction is started by the addition of 100 μl of the membrane suspension. Here a fixed quantity of the radioactive ligand (0.25 to 0.3 nmol/l of ^3 H-bradykinin) and various concentrations of the unlabeled agonists or antagonists are employed. 50 μl of the preparations or standard to be tested in the concentrations 10^-5 to 10^-10 mol/l are added to 50 μl in each case of the ^3 H-bradykinin solution, and the reaction is started by addition of 100 μl of membrane suspension. Triplicate determinations also are carried out in this test, and three samples are incubated with 10 μmol/l of HOE 140 to determine the nonspecific binding. The preparations to be tested for competition are completely dissolved in a concentration of 1 mmol/l in dimethyl sulfoxide (DMSO), and then further diluted with DMSO. This solution is then diluted 1:25 with incubation buffer. […] The still moist filters are punched out into mini-scintillation tubes, and these are filled with 3 ml of scintillator. After a soaking time of about 12 hours, the samples are briefly shaken and measured in a beta-counter. […] If a displacement of the radioligand of 50% or more is detectable at the highest concentration, a complete analysis (competition experiment) is carried out using at least 8 concentrations. Assessment is carried out by means of the LIGAND program package (McPherson, Minson & Rodbard, marketed by: Elsevier-BIOSOFT), which carries out the necessary calculations for the determination of IC50 and Ki values. This program moreover carries out graphic presentations of the saturation or displacement curves as well as the SCATCHARD plot, HILL plot, or HOFSTEE plot.
# [2] = system: bradykinin-induced contraction of the guinea-pig ileum; assay: bradykinin-induced contraction of the guinea-pig ileum; settings: isolated guinea-pig ileum, bradykinin 4×10^-8 mol/l, antagonist action time 10 min, 37° C.
# From the text: In addition, for the determination of the bradykinin-antagonistic action of the compounds of fomula (I), their effect on the bradykinin-induced contraction of the guinea-pig ileum can be measured according to the following protocol:
# Guinea-pigs about 300 g in weight (Morioth strain, .male..female.) are killed by a blow to the neck and exsanguinated. The ileum is dissected out in a length of about 20 cm, rinsed with Tyrode solution (Record Syringe), and thus freed from the intestinal contents. It is then divided into sections 1.5 cm long. These are fixed in organ baths of 10 ml capacity, which are filled with Tyrode solution, and connected to extension-measuring strips (isometric contraction measurement). The preload is 1 g. The Tyrode solution is warmed to 37° C. in a water bath and bubbled through with compressed air. After an interval of 30 min, the experiment is begun. After recording the biological zero line, bradykinin in a final concentration of 4×10^-8 mol/l is added per organ bath, and the […] is recorded. Rinsing with Tyrode solution is then carried out for three min., and after a break of 20 min., bradykinin is again added. The maximum of the contraction is achieved (control). Rinse again, break. […] The experiment is recorded on a pen recorder.
# Thus, the compounds of Examples 6 and 20, for example, have the following IC50 values determined by the above procedure: […]
Ki [1],IC50 [2],Structure (SMILES)
6 nM,,"CCNC(=O)NCC(=O)N(C)c1ccc(OC)c(COc2cccc3ccc(C)nc23)c1C#N [Example 9, N-[2-Cyano-4-methoxy-3-(2-methylquinolin-8-yloxymethyl)phenyl]-2-(3-ethylureido)-N-methylacetamide]"
1 nM,,"CSc1ccc(N(C)C(=O)CNC(=O)/C=C/c2ccc(NC(C)=O)nc2)c(SC)c1COc1cccc2ccc(C)nc12 [Example 24, 8-[2,6-Dithiomethyl-3-(3-(6-acetylaminopyridin-3-yl)acryloylglycyl-N-methyl)aminobenzyloxy]-2-methylquinoline]"
0.1 nM,350 nM,"Cc1ccc2cccc(OCc3c(Cl)ccc(N(C)C(=O)CNC(=O)NCCCCN)c3C#N)c2n1 [Example 6, 8-[6-Chloro-2-cyano-3-[N-(4-aminobutylaminocarbonylglycyl-N-methyl]aminobenzyloxy]-2-methylquinoline bistrifluoroacetate]"
17.4 nM,,COc1c(N(C)C(=O)CNC(=O)/C=C/c2ccc(C(F)(F)F)cc2)ccc(SC)c1COc1cccc2ccc(C)nc12 [Example 16]
8.3 nM,,"CCNC(=O)NCC(=O)N(C)c1ccc(Cl)c(COc2cccc3ccc(C)nc23)c1C#N [Example 1, 8-[6-Chloro-2-cyano-3-(N-ethylaminocarbonylglycyl-N-methyl)amino-benzyloxy]-2-methylquinoline]"
5.4 nM,56 nM,"COC(=O)CCCCC(=O)NCC(=O)N(C)c1ccc(OC)c(COc2cccc3ccc(C)nc23)c1SC [Example 20, 8-[6-Methoxy-2-methylthio-3-(N-5-methoxycarbonylpentanoylglycyl-N-methyl)aminobenzyloxy]-2-methylquinoline]"
